The values below come from patent US10597380B2, “Pyridazinone-based broad spectrum anti-influenza inhibitors” (Hoffmann-La Roche Inc., priority 2017, dated 2020).

As a reminder, the IC50 is the concentration at which inhibition is half-maximal.

The test system of this assay is Influenza A/WSN/33-Luciferase virus. Briefly: microbe, parasite or virus in culture. It counts as cell-based. The following applies: A549, 72 h, luciferase signal three days later, read-out: IC50 antiviral activity (Luciferase reporter assay). (In a reporter assay the amount or activity of a reporter protein is the signal.)

For `Cn1cccc(Nc2nn(-c3ccc(OC(F)(F)F)cc3)c(=O)c3c2COCC3)c1=O` [Example 63, 4-[(1-methyl-2-oxo-3-pyridyl)amino]-2-[4-(trifluoromethoxy)phenyl]-7,8-dihydro-5H-pyrano[3,4-d]pyridazin-1-one], the IC50 was 33 nM.
The value for `O=c1c(Nc2nn(-c3ccc(OC(F)(F)F)cc3)c(=O)c3c2CCC3)cncn1CCO` [Example 47, 1-[[1-(2-hydroxyethyl)-6-oxo-pyrimidin-5-yl]amino]-3-[4-(trifluoromethoxy)phenyl]-6,7-dihydro-5H-cyclopenta[d]pyridazin-4-one] was 71 nM.
Turning to `O=C(Cn1cccc(Nc2nn(-c3ccc(OC(F)(F)F)cc3)c(=O)c3c2CCC3)c1=O)N1CCNCC1` [Example 167, 1-[[2-Oxo-1-(2-oxo-2-piperazin-1-yl-ethyl)-3-pyridyl]amino]-3-[4-(trifluoromethoxy)phenyl]-6,7-dihydro-5H-cyclopenta[d]pyridazin-4-one], the half-maximal inhibitory concentration (IC50) was found to be 148 nM.
As for `CN(C)C(=O)CCn1cccc(Nc2nn(-c3ccc(OC(F)(F)F)cc3)c(=O)c3ccccc23)c1=O` [Example 96, N,N-dimethyl-3-[2-oxo-3-[[4-oxo-3-[4-(trifluoromethoxy)phenyl]phthalazin-1-yl]amino]-1-pyridyl]propanamide], the IC50 was determined as 42 nM.
In the case of `Cn1cccc(Nc2nn(-c3ccc(C4(C)COC4)cc3)c(=O)c3ccccc23)c1=O` [Example 10, 2-[4-(3-methyloxetan-3-yl)phenyl]-4-[(1-methyl-2-oxo-3-pyridyl)amino]phthalazin-1-one], the IC50 amounted to 259 nM.
The value for `Cc1cc(Nc2nn(-c3ccc(OC(F)(F)F)cc3)c(=O)c3c2CCC3)c(=O)n(C)n1` [Example 29, 1-[(2,6-dimethyl-3-oxo-pyridazin-4-yl)amino]-3-[4-(trifluoromethoxy)phenyl]-6,7-dihydro-5H-cyclopenta[d]pyridazin-4-one] was 22 nM; that for `O=C(O)C1COCCN1CCn1cccc(Nc2nn(-c3ccc(OC(F)(F)F)cc3)c(=O)c3c2CCC3)c1=O` (centres unmarked) [Example 123, 4-[2-[2-oxo-3-[[4-oxo-3-[4-(trifluoromethoxy)phenyl]-6,7-dihydro-5H-cyclopenta[d]pyridazin-1-yl]amino]-1-pyridyl]ethyl]morpholine-3-carboxylic acid] was 485 nM.
The value for `Cn1cccc(Nc2nn(-c3ccc(OC(F)(F)F)cc3)c(=O)c3cc(N)ccc23)c1=O` [Example 142, 7-Amino-4-[(1-methyl-2-oxo-3-pyridyl)amino]-2-[4-(trifluoromethoxy)phenyl]phthalazin-1-one] was 46 nM; that for `CNC(=O)Cn1cccc(Nc2nn(-c3ccc(OC(F)(F)F)cc3)c(=O)c3c2CCCC3)c1=O` [Example 104, N-methyl-2-[2-oxo-3-[[4-oxo-3-[4-(trifluoromethoxy)phenyl]-5,6,7,8-tetrahydrophthalazin-1-yl]amino]-1-pyridyl]acetamide] was 39 nM.
For the molecule `Cn1cncc(Nc2nn(-c3ccc(OC(F)(F)F)cc3)c(=O)c3c2CCCC3)c1=O` [Example 22, 4-[(1-methyl-6-oxo-pyrimidin-5-yl)amino]-2-[4-(trifluoromethoxy)phenyl]-5,6,7,8-tetrahydrophthalazin-1-one], the concentration for half-maximal inhibition (IC50) was found to be 16 nM.
The value for `Cn1cccc(Nc2nn(-c3ccc(OC(F)(F)F)cc3)c(=O)c3c(F)cccc23)c1=O` [Example 17, 8-fluoro-4-[(1-methyl-2-oxo-3-pyridyl)amino]-2-[4-(trifluoromethoxy)phenyl]phthalazin-1-one] was 100 nM; that for `O=c1c(Nc2nn(-c3ccc(OC(F)(F)F)cc3)c(=O)c3ccccc23)cccn1CCN1CCC(O)C1` (centres unmarked) [Example 78, 4-[[1-[2-(3-hydroxypyrrolidin-1-yl)ethyl]-2-oxo-3-pyridyl]amino]-2-[4-(trifluoromethoxy)phenyl]phthalazin-1-one] was 31 nM; that for `Cn1cccc(Nc2nn(-c3ccc(OC(F)(F)F)cc3)c(=O)c3c2CC(O)CC3)c1=O` (centres unmarked) [Example 165, 6-hydroxy-4-[(1-methyl-2-oxo-3-pyridyl)amino]-2-[4-(trifluoromethoxy)phenyl]-5,6,7,8-tetrahydrophthalazin-1-one] was 24 nM.
Take `COCCOc1ccc2c(=O)n(-c3ccc(OC(F)(F)F)cc3)nc(Nc3cccn(C)c3=O)c2c1` [Example 136, 6-(2-Methoxyethoxy)-4-[(1-methyl-2-oxo-3-pyridyl)amino]-2-[4-(trifluoromethoxy)phenyl]phthalazin-1-one]: the IC50 stood at 61 nM.
The value for `CN(C)C(=O)CCCn1cccc(Nc2nn(-c3ccc(OC(F)(F)F)cc3)c(=O)c3c2CCC3)c1=O` [Example 106, N,N-dimethyl-4-[2-oxo-3-[[4-oxo-3-[4-(trifluoromethoxy)phenyl]-6,7-dihydro-5H-cyclopenta[d]pyridazin-1-yl]amino]-1-pyridyl]butanamide] was 14 nM; that for `Cn1cccc(Nc2nn(-c3ccc(C4COC4)cc3)c(=O)c3ccccc23)c1=O` [Example 11, 4-[(1-methyl-2-oxo-3-pyridyl)amino]-2-[4-(oxetan-3-yl)phenyl]phthalazin-1-one] was 2010 nM.
The value for `CN(C)C(=O)Cn1cccc(Nc2nn(-c3ccc(OC(F)(F)F)cc3)c(=O)c3ccccc23)c1=O` [Example 89, N,N-dimethyl-2-[2-oxo-3-[[4-oxo-3-[4-(trifluoromethoxy)phenyl]phthalazin-1-yl]amino]-1-pyridyl]acetamide] was 38 nM; that for `O=C(Cn1cccc(Nc2nn(-c3ccc(OC(F)(F)F)cc3)c(=O)c3ccccc23)c1=O)N1CCOCC1` [Example 88, 4-[[1-(2-Morpholino-2-oxo-ethyl)-2-oxo-3-pyridyl]amino]-2-[4-(trifluoromethoxy)phenyl]phthalazin-1-one] was 23 nM; that for `COC(=O)CCn1cccc(Nc2nn(-c3ccc(OC(F)(F)F)cc3)c(=O)c3ccccc23)c1=O` [Example 69, methyl 3-[2-oxo-3-[[4-oxo-3-[4-(trifluoromethoxy)phenyl]phthalazin-1-yl]amino]-1-pyridyl]propanoate] was 228 nM.
The value for `Cn1cccc(Nc2nn(-c3ccc(C(C)(C)C)cc3)c(=O)c3ccccc23)c1=O` [Example 14, 2-(4-tert-butylphenyl)-4-[(1-methyl-2-oxo-3-pyridyl)amino]phthalazin-1-one] was 109 nM.
In the case of `CCCn1cncc(Nc2nn(-c3ccc(OC(F)(F)F)cc3)c(=O)c3c2CCN(C(C)=O)C3)c1=O` [Example 86, 6-acetyl-1-[(6-oxo-1-propyl-pyrimidin-5-yl)amino]-3-[4-(trifluoromethoxy)phenyl]-7,8-dihydro-5H-pyrido[3,4-d]pyridazin-4-one], the half-inhibitory concentration (IC50) came to 34 nM.
The value for `COC(=O)N1CCc2c(c(Nc3cccn(C)c3=O)nn(-c3ccc(OC(F)(F)F)cc3)c2=O)C1` [Example 152, Methyl 4-[(1-methyl-2-oxo-3-pyridyl)amino]-1-oxo-2-[4-(trifluoromethoxy)phenyl]-7,8-dihydro-5H-pyrido[3,4-d]pyridazine-6-carboxylate] was 32 nM; that for `CN(C)CCn1cncc(Nc2nn(-c3ccc(OC(F)(F)F)cc3)c(=O)c3c2CCC3)c1=O` [Example 50, 1-[[1-[2-(dimethylamino)ethyl]-6-oxo-pyrimidin-5-yl]amino]-3-[4-(trifluoromethoxy)phenyl]-6,7-dihydro-5H-cyclopenta[d]pyridazin-4-one] was 28 nM.
